Where “and” joins values, the source holds several entries; their conditions need not be identical. Equal entries are not always repeated.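 1) Cells in 96-well plates. 2) Compound, 48 h, 5 concentrations. 3) Linear interpolation between surrounding doses. 4) Unreached endpoint = highest concentration. GI50 = concentration required for 50% inhibition of growth. TGI marks complete inhibition of growth.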 Some results are limits rather than exact numbers.

Among the data in PubChem BioAssay (NCI) are TGI and GI50 values, retold here.

Test systems include CCRF-CEM leukemia; EKVX NSCLC; HT29 colon; KM20L2 colon; LXFL 529 NSCLC; M14 melanoma; MOLT-4 leukemia; NCI-H460 lung; NCI-H522 lung; OVCAR-3 ovarian.
What all share (test): inhibition of tumour cell growth, NCI panel, 48 h

As to `O=C(c1ccccc1)C1OC12C(=O)Nc1c(Cl)cc(Cl)cc12` (stereo not drawn), the TGI was 27.2 µM in the assay on CCRF-CEM leukemia; above 100 µM in the assay on EKVX NSCLC; above 100 µM in the assay on HT29 colon; above 100 µM in the assay on KM20L2 colon; above 53.9 µM in the assay with LXFL 529 NSCLC; above 82.4 µM in the assay on M14 melanoma. Moreover, the TGI was 31 µM with MOLT-4 leukemia, above 100 µM in the assay on NCI-H460 lung, 34.6 µM in the assay on NCI-H522 lung and above 100 µM in the assay with OVCAR-3 ovarian.
As to `O=C(O)CCC(N=Cc1nc(-c2ccccc2)oc1O)C(=O)O` (stereo not drawn), the TGI in the assay with CCRF-CEM leukemia, with EKVX NSCLC, in the assay with HT29 colon, with KM20L2 colon, with LXFL 529 NSCLC and in the assay on M14 melanoma was above 100 µM throughout. The TGI in the assay with MOLT-4 leukemia, in the assay with NCI-H460 lung, in the assay with NCI-H522 lung and in the assay with OVCAR-3 ovarian was above 100 µM each time.
`NC(=O)/N=C1/CCC2C3CCCC2C13`: the TGI with CCRF-CEM leukemia, in the assay on EKVX NSCLC, with HT29 colon, in the assay with KM20L2 colon, in the assay with LXFL 529 NSCLC and in the assay with M14 melanoma was above 100 µM each time. In addition, the TGI in the assay with MOLT-4 leukemia, in the assay on NCI-H460 lung, with NCI-H522 lung and in the assay with OVCAR-3 ovarian was above 100 µM each time.
Consider `O=C(CCN1CCN(c2ccccc2)CC1)N1CCc2c([nH]c3ccccc23)C1c1cccnc1` (stereo not drawn), for which the TGI in the assay on CCRF-CEM leukemia was found to be 69.7 µM; in the assay with EKVX NSCLC it was 34.7 µM; with HT29 colon, 29 µM; with KM20L2 colon, 29.5 µM; in the assay on LXFL 529 NSCLC, 31.6 µM; in the assay on M14 melanoma it was 31.2 µM. The TGI in the assay on MOLT-4 leukemia was found to be 51.1 µM; with NCI-H460 lung it was 34.4 µM; with NCI-H522 lung, 30 µM; with OVCAR-3 ovarian, 30.7 µM.
With `CN1C(=O)C2C3C=C4c5ccccc5N(c5ccccc5)C4(C2C1=O)[C@H]1C(=O)N(C)C(=O)[C@@H]31` (stereo partly drawn), the TGI with CCRF-CEM leukemia, with EKVX NSCLC, in the assay on HT29 colon, in the assay on KM20L2 colon, in the assay on LXFL 529 NSCLC and in the assay on M14 melanoma was above 100 µM throughout. Also, the TGI with MOLT-4 leukemia, with NCI-H460 lung, with NCI-H522 lung and with OVCAR-3 ovarian was above 100 µM in each case.
Take `C/C(CC(=O)Nc1ccc(C)c(C)c1)=N\NC(N)=O`: the TGI in the assay with CCRF-CEM leukemia, in the assay with EKVX NSCLC, in the assay with HT29 colon, in the assay on KM20L2 colon, in the assay with LXFL 529 NSCLC and with M14 melanoma was above 100 µM throughout. In addition, the TGI in the assay on MOLT-4 leukemia, in the assay on NCI-H460 lung, in the assay on NCI-H522 lung and with OVCAR-3 ovarian was above 100 µM in each case.
Regarding `Cn1cnc([N+](=O)[O-])c1Sc1nccn1-c1cccc2ccccc12`, the TGI in the assay on CCRF-CEM leukemia was 68.5 µM; in the assay on EKVX NSCLC, 92.4 µM; in the assay with HT29 colon, 88.1 µM; with KM20L2 colon it was above 100 µM; in the assay with LXFL 529 NSCLC, 99.4 µM; with M14 melanoma, 61 µM. In addition, the TGI with MOLT-4 leukemia worked out at 43.7 µM; with NCI-H460 lung it was 73.1 µM; in the assay on NCI-H522 lung, 22.4 µM; in the assay on OVCAR-3 ovarian, 75.2 µM.
As for `COc1ccc(-c2cc(=O)c3cc(OC)ccc3[nH]2)cc1`, the TGI in the assay with CCRF-CEM leukemia, with EKVX NSCLC, with HT29 colon, in the assay on KM20L2 colon, in the assay on LXFL 529 NSCLC and in the assay on M14 melanoma was above 100 µM in each case. Besides, the TGI in the assay with MOLT-4 leukemia, with NCI-H522 lung and with OVCAR-3 ovarian was above 100 µM throughout.
Regarding `CC(=O)OC[C@@H](COC(=O)/C=C/c1ccc(O)cc1)OC1OC(CO)C(O)C(O)C1O` (stereo partly drawn), the TGI in the assay on CCRF-CEM leukemia, in the assay on EKVX NSCLC, in the assay on HT29 colon, in the assay on KM20L2 colon, with LXFL 529 NSCLC and in the assay on M14 melanoma was above 100 µM each time. Further, the TGI with MOLT-4 leukemia, in the assay on NCI-H460 lung, in the assay on NCI-H522 lung and with OVCAR-3 ovarian was above 100 µM throughout.
Consider `CC(Nc1ccc(S(=O)(=O)N=C(N)N)cc1)c1c2ccccc2nc2ccccc12` (stereo not drawn), for which the TGI in the assay on CCRF-CEM leukemia was 60.5 µM; in the assay on EKVX NSCLC it was above 100 µM; in the assay with HT29 colon, above 100 µM; with KM20L2 colon, above 100 µM; in the assay with LXFL 529 NSCLC, 80.6 µM; with M14 melanoma, above 100 µM. Also, the TGI was 48.1 µM in the assay on MOLT-4 leukemia, 83.8 µM with NCI-H460 lung, 38 µM with NCI-H522 lung and above 10 µM with OVCAR-3 ovarian.
In the case of `COC(=O)c1cccn1C(=O)n1cccc1`, the TGI in the assay with CCRF-CEM leukemia, with EKVX NSCLC, in the assay on HT29 colon, in the assay on KM20L2 colon, in the assay on LXFL 529 NSCLC and in the assay with M14 melanoma was above 100 µM each time. The TGI with MOLT-4 leukemia, in the assay on NCI-H460 lung, in the assay with NCI-H522 lung and with OVCAR-3 ovarian was above 100 µM throughout.
As for `O=c1c(Br)cc2nc3ccccc3sc-2c1Br`, the TGI in the assay with CCRF-CEM leukemia, in the assay on EKVX NSCLC, in the assay with HT29 colon, with KM20L2 colon, with LXFL 529 NSCLC and with M14 melanoma was above 100 µM in each case. For the same compound, the TGI in the assay on MOLT-4 leukemia is above 65.8 µM; in the assay on NCI-H460 lung it was above 100 µM; in the assay on NCI-H522 lung, 36.2 µM; in the assay on OVCAR-3 ovarian it was 32.5 µM.
With `O=C(O)C1(C(=O)O)CCC1.[NH2-].[NH2-].[Pt+2]`, the GI50 is 73.5 µM and 22.7 µM with CCRF-CEM leukemia; 194 µM and > 250 µM with EKVX NSCLC; 210 µM and > 250 µM with HT29 colon; 212 µM with KM20L2 colon; 247 µM with LXFL 529 NSCLC; 109 µM and 184 µM in the assay on M14 melanoma. Besides, the GI50 in the assay on MOLT-4 leukemia is 86.4 µM and 28 µM; in the assay on NCI-H460 lung, 37.5 µM; in the assay with NCI-H522 lung, 54.9 µM and 95.7 µM; in the assay on OVCAR-3 ovarian, 58.4 µM and 112 µM. Besides, the TGI with CCRF-CEM leukemia is above 250 µM; in the assay on EKVX NSCLC, above 250 µM; with HT29 colon, above 250 µM; in the assay with KM20L2 colon it was above 235 µM; with LXFL 529 NSCLC, above 250 µM; with M14 melanoma, 248 µM and > 250 µM. Also, the TGI with MOLT-4 leukemia was above 237 µM; in the assay with NCI-H460 lung, 206 µM; in the assay with NCI-H522 lung it was 145 µM and 190 µM; with OVCAR-3 ovarian it was 139 µM and 195 µM.
For the compound `Cc1ccc(NC(=O)CC2Sc3ccccc3NC2=O)c(C)c1` (stereo not drawn), the TGI in the assay with CCRF-CEM leukemia was 78.4 µM; with EKVX NSCLC, above 100 µM; with KM20L2 colon it was 30.5 µM; with LXFL 529 NSCLC, 71.1 µM; with M14 melanoma, 36.5 µM; in the assay on MOLT-4 leukemia, 72.9 µM. The TGI in the assay with NCI-H460 lung is 32.4 µM; in the assay with NCI-H522 lung, 30.4 µM; in the assay on OVCAR-3 ovarian it was 28.6 µM.
Consider `CCC[CH2][Sn]1([CH2]CCC)[O]CC(CN(C)Cc2ccccc2)[O]1` (stereo not drawn), for which the GI50 was 2.37 µM in the assay with CCRF-CEM leukemia; 10.7 µM in the assay with EKVX NSCLC; 15.2 µM with HT29 colon; 12 µM in the assay with KM20L2 colon; 1.6 µM with LXFL 529 NSCLC; 2.45 µM in the assay with M14 melanoma. In addition, the GI50 in the assay with MOLT-4 leukemia was 3.64 µM; in the assay on NCI-H460 lung it was 16.4 µM; in the assay on NCI-H522 lung, 1.94 µM; with OVCAR-3 ovarian it was 6.35 µM. Further, the TGI stood at 8.09 µM in the assay on CCRF-CEM leukemia; 27.3 µM with EKVX NSCLC; 34.3 µM with HT29 colon; 26 µM in the assay with KM20L2 colon; 5 µM in the assay on LXFL 529 NSCLC; 7.76 µM in the assay on M14 melanoma. The TGI with MOLT-4 leukemia was 20.8 µM; in the assay on NCI-H460 lung, 30.3 µM; in the assay on NCI-H522 lung, 4.61 µM; in the assay on OVCAR-3 ovarian, 18.4 µM.
Regarding `O=c1ncc(F)cn1C1OC(CO)C(O)C1O` (stereo not drawn), the TGI in the assay on CCRF-CEM leukemia is above 63.6 µM; in the assay with EKVX NSCLC it was above 100 µM; with HT29 colon it was above 73.3 µM; in the assay on KM20L2 colon it was above 70.6 µM; in the assay with LXFL 529 NSCLC it was above 43.8 µM; in the assay with M14 melanoma, above 100 µM. The TGI with MOLT-4 leukemia was above 54.3 µM; in the assay with NCI-H460 lung, above 73 µM; in the assay on NCI-H522 lung it was above 70.2 µM; in the assay on OVCAR-3 ovarian, above 67.4 µM.
